Test results reported in patent US11384097B2, “Tetrahydroisoquinoline derivative, preparation method therefor and use thereof” (ZHEJIANG HISUN PHARMACEUTICAL CO., LTD., priority 2018, dated 2022).
Where two headings read alike, the source gives them in different places.

Experiments:
Human AT2R = molecular target: T1, Human AT2R (Homo sapiens, UniProt P50052); test: Antagonistic activity assay on human AT2R ligand binding (Tag-lite HTRF, Tb-labeled-AT2R cells); conditions: AT2 ligand binding, red agonist fluorescent ligand
T1 construct: Terbium (Tb) donor label on the receptor; From my own knowledge, the Tag-lite format usually uses an N-terminal SNAP-tag fusion labelled with Lumi4-Tb; expressed in transfected cells
T1 sequence (P50052 1-363): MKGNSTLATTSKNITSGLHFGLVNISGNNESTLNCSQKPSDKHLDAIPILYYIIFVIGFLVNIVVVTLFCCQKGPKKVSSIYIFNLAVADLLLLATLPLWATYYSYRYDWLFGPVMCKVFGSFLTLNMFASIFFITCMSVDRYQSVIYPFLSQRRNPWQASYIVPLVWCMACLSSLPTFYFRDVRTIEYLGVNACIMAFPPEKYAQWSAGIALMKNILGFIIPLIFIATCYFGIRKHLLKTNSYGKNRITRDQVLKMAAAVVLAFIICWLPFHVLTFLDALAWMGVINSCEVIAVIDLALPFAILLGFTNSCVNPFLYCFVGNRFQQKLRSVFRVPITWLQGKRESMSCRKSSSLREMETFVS
Protocol: Antagonistic Activity Assay of the Compound of the Present Disclosure on Human AT2R Ligand Binding
According to standard methods, all compounds were dissolved in dimethyl sulfoxide and prepared as 10 mM stock solutions.
(3) Each of the diluted compound in step (2) was transferred to a working plate (3657, Corning) at 160 nL/well, at 200 g, at room temperature for 1 minute;
(4) 40 μl 1×TLB was added to the above working plate, and it was centrifuged at 200 g (centrifugal force) at room temperature for 1 minute, shook on a shaker for 15 minutes to mix well, and centrifuged at 200 g (working concentration of the compound was 4×) at room temperature for 1 minute for later use;
(6) 5 mL 1×TLB was taken in a 15 mL centrifuge tube;
(7) a Tb-labeled-AT2R cells were frozen and thawed in a 37° C. water bath until the ice was completely melted (1-2 minutes);
(8) The frozen and thawed cells were rapidly transferred to the 1×TLB in step (6), and the resulting solution was mixed gently, and then centrifuged at 1200 g at room temperature for 5 minutes;
After being mixed well, the resulting mixture was placed at room temperature for late use;
(11) The reaction plate was centrifuged at 200 g at room temperature for 1 minute, and stood for 1 hour at room temperature of 25° C., and then it was centrifuged at 200 g at room temperature for 1 minute. The data was collected using Envision HTRF microplate reader, and IC50 was calculated using a nonlinear fitting formula.

[1] = Metabolic stability in rat liver microsomes; assay type: in vitro ADME; conditions: for half-life at 1 µM: rat liver microsomes 0.5 mg/mL, 1 μM compound, NADPH 1 mM, read-out: Half-life/(T1/2, min)
Protocol: Test Example 2. Study on the Metabolic Stability of the Compound of the Present Disclosure in Rat Liver Microsomes
The purpose of this experiment is to study the metabolic stability of the compounds of the present disclosure in rat liver microsomes.
The compounds were incubated with rat liver microsomes and coenzyme NADPH was added to initiate the reaction. At 0, 5, 15, 30 and 60 minutes, 20 μL of incubation solution was taken out and transferred to 200 μL of acetonitrile containing internal standard to stop the reaction. After protein precipitation, the resulting mixture was centrifuged at 3,700 rpm for 10 minutes, and the supernatant was taken. The supernatant was diluted 1:1 with water and analyzed by LC-MS/MS method. According to the elimination half-life of the test compound in the incubation system, the in vitro intrinsic clearance rate was calculated. Midazolam was used as the internal reference compound and all incubations were performed in duplicate in parallel.
The peak area ratio analyte/internal standard (Aanalyte/AIS) is obtained by the instrument, and the remaining percentage (% Control) is calculated from the ratio Aanalyte/AIS in the non-zero time point sample to the zero time point sample. Ln (% Control) against incubation time is plotted and a linear fit was performed.

[2] = Pharmacokinetic study in SD rats (intravenous injection and intragastric administration); assay type: in vivo, Sprague Dawley (SD) rats; conditions: for bioavailability / half-life / AUC(0-inf) / Cmax / MRT: male, Sprague-Dawley, rat, plasma; for bioavailability: Oral (10 mg/kg) vs Injection (1 mg/kg), read-out: Bioavailability F(%); for half-life: read-out: Half-life T1/2 (converted); for AUC(0-inf): read-out: area under curve AUC0-∞; for Cmax: read-out: blood concentration Cmax; for MRT: read-out: residence time MRT
Protocol: Test Example 3. Oral Pharmacokinetic Studies of the Compounds of the Present Disclosure in SD Rats
SD rats were used as the experimental animal. The rats were intravenously injected or intragastrically administered with the compounds of the present disclosure, and the drug concentrations in plasma at different times were tested by LC/MS/MS methods, so as to research the pharmacokinetic characteristics of compounds of present disclosure in rats.
Forty-eight healthy adult Sprague Dawley (SD) male rats were purchased from Weitong Lihua Laboratory Animal Technology Co., Ltd., production license number: 11400700271077.
48 healthy adult male SD rats were fasted overnight and administered via tail vein injection (at a dosage of 1 mg/kg) and intragastrically administered (at a dosage of 10 mg/kg), respectively. The rats were fed 4 h after the administration.
About 0.2 mL of blood was collected from the jugular vein before administering and at 0.083 hours, 0.25 hours, 0.5 hours, 1 hour, 2 hours, 4 hours, 8 hours, 12 hours, and 24 hours after administering, and heparin sodium was used for anticoagulation. Blood samples were collected and placed on ice, and plasma was separated by centrifugation (centrifugation conditions: 1500 g, 10 min). The collected plasma was stored at −40° C.-20° C. before analysis.
10 μL of plasma sample was taken and 400 μL of acetonitrile (containing internal standard working solution, comprising 5 ng/mL verapamil and 50 ng/mL glibenclamide) was added. The resulting mixture was vortexed for 10 minutes, and centrifuged at 3700 rpm for 10 minutes. 70 μL of the supernatant was taken, and […] of water was added. The resulting mixture was vortexed for 10 minutes, and 2 μL of the mixture was transferred to the LC-MS/MS for sample analysis.

[3] = iv, Injection (1 mg/kg), tail vein

Row | SMILES | IC50 (Human AT2R) | half-life at 1 µM [1] | half-life ([2]; Oral (10 mg/kg)) | AUC(0-inf) ([2]; Oral (10 mg/kg)) | MRT ([2]; Oral (10 mg/kg)) | AUC(0-inf) [2, 3] | MRT [2, 3] | further results
1 | COc1ccc(COc2c(OC)ccc3c2C[C@@H](C(=O)O)N(c2nc4ccc(C#N)cc4o2)C3)nc1 [Example 44, (S)-2-(6-cyanobenzo[d]oxazol-2-yl)-6-methoxy-5-((5-methoxypyridin-2-yl)methoxy)-1,2,3,4-tetrahydroisoquinoline-3-carboxylic acid] | 33 nM | – | – | – | – | – | – | –
2 | COc1ccc2c(c1OCc1ccc(F)cc1)C[C@@H](C(=O)O)N(c1nc3ccc(F)cc3o1)C2 [Example 29, (S)-2-(6-fluorobenzo[d]oxazol-2-yl)-5-((4-fluorobenzyl)oxy)-6-methoxy-1,2,3,4-tetrahydroisoquinoline-3-carboxylic acid] | – | 164 min | – | – | – | – | – | –
3 | COc1ccc(COc2c(OC)ccc3c2C[C@@H](C(=O)NS(=O)(=O)N(C)C)N(c2nc4ccc(F)cc4o2)C3)cc1 [Example 46] | 5 nM | – | – | – | – | – | – | –
4 | CCS(=O)(=O)NC(=O)[C@@H]1Cc2c(ccc(OC)c2OCc2ccc(OC)cc2)CN1c1nc2ccc(F)cc2o1 [Example 45, (S)—N-(ethylsulfonyl)-2-(6-fluorobenzo[d]oxazol-2-yl)-6-methoxy-5-((4-methoxybenzyl)oxy)-1,2,3,4-tetrahydroisoquinoline-3-carboxamide] | 6 nM | – | – | – | – | – | – | –
5 | COc1ccc2c(c1OCc1ccccc1)C[C@@H](C(=O)O)N(c1nc3ccc(Cl)cc3o1)C2 [Example 16, (S)-5-(benzyloxy)-2-(6-chlorobenzo[d]oxazol-2-yl)-6-methoxy-1,2,3,4-tetrahydroisoquinoline-3-carboxylic acid] | 36 nM | – | – | – | – | – | – | –
6 | COc1ccc(COc2c(OC)ccc3c2C[C@@H](C(=O)O)N(c2nc4ccc(F)cc4o2)C3)nc1 [Example 36, (S)-2-(6-fluorobenzo[d]oxazol-2-yl)-6-methoxy-5-((5-methoxypyridin-2-yl)methoxy)-1,2,3,4-tetrahydroisoquinoline-3-carboxylic acid] | 10 nM | 768 min | 3.8 ± 1 h | 24700 ± 9400 ng·h/mL | 5.4 ± 1.3 h | 4600 ± 240 ng·h/mL | 2.3 ± 0.6 h | bioavailability [2]: 53.7%; Cmax ([2]; Oral (10 mg/kg)): 4740 ± 662 ng/mL; half-life [2, 3]: 4.8 ± 2.6 h
7 | COc1ccc2c(c1OCc1ccccc1)C[C@@H](C(=O)O)N(c1nc3ccc(F)cc3o1)C2 [Example 14, (S)-5-(Benzyloxy)-2-(6-fluorobenzo[d]oxazol-2-yl)-6-methoxy-1,2,3,4-tetrahydroisoquinoline-3-carboxylic acid] | – | 233 min | 3.6 ± 0.2 h | 29600 ± 4670 ng·h/mL | 5.3 ± 0.4 h | 8230 ± 1090 ng·h/mL | 1.9 ± 0.4 h | –
8 | COc1ccc2c(c1OCc1ccccc1)C[C@@H](C(=O)O)N(C(=O)C(c1ccccc1)c1ccccc1)C2 [olodanrigan, reference compound] | – | 96.3 min | 1.5 ± 0.3 h | 1480 ± 715 ng·h/mL | 2.6 ± 1 h | 1230 ± 96 ng·h/mL | 0.92 ± 0.16 h | bioavailability [2]: 12.1%; Cmax ([2]; Oral (10 mg/kg)): 470 ± 197 ng/mL; half-life [2, 3]: 1.6 ± 0.3 h
9 | COc1ccc2c(c1COc1ccccc1)C[C@@H](C(=O)NS(=O)(=O)C1CC1)N(c1nc3ccc(F)cc3o1)C2 [Example 21, (S)—N-(cyclopropylsulfonyl)-2-(6-fluorobenzo[d]oxazol-2-yl)-6-methoxy-5-(phenoxymethyl)-1,2,3,4-tetrahydroisoquinoline-3-carboxamide] | 36 nM | – | – | – | – | – | – | –
10 | CCS(=O)(=O)NC(=O)[C@@H]1Cc2c(ccc(OC)c2COc2ccccc2)CN1c1nc2ccc(F)cc2o1 [Example 19, (S)—N-(ethylsulfonyl)-2-(6-fluorobenzo[d]oxazol-2-yl)-6-methoxy-5-(phenoxymethyl)-1,2,3,4-tetrahydroisoquinoline-3-carboxamide] | 25 nM | 175 min | – | – | – | – | – | –
11 | COc1ccc2c(c1OCc1ccccc1)CC(C(=O)NS(=O)(=O)N(C)C)N(c1nc3ccccc3o1)C2 (stereo not shown) [Example 9, 2-(Benzo[d]oxazol-2-yl)-5-(benzyloxy)-N—(N,N-dimethylsulfonyl)-6-methoxy-1,2,3,4-tetrahydroisoquinoline-3-carboxamide] | – | – | 2.1 ± 1.6 h | 18100 ± 5400 ng·h/mL | 2.2 ± 0.8 h | 2550 ± 720 ng·h/mL | 1.3 ± 0.2 h | bioavailability [2]: 71.1%; Cmax ([2]; Oral (10 mg/kg)): 9470 ± 5890 ng/mL; half-life [2, 3]: 1.3 ± 0.1 h
12 | COc1ccc(COc2c(OC)ccc3c2C[C@@H](C(=O)O)N(c2nc4ccc(F)cc4o2)C3)cn1 [Example 39, (S)-2-(6-fluorobenzo[d]oxazol-2-yl)-6-methoxy-5-((6-methoxypyridin-3-yl)methoxy)-1,2,3,4-tetrahydroisoquinoline-3-carboxylic acid] | – | 845 min | 3.6 ± 0.3 h | 15300 ± 2260 ng·h/mL | 4.3 ± 0.6 h | 3380 ± 405 ng·h/mL | 1.9 ± 0.3 h | Half-life T1/2 ([2]; Injection (1 mg/kg), tail vein): 2.3 ± 0.4 h; bioavailability [2]: 45.3%
13 | COc1ccc2c(c1OCc1ccccc1)C[C@@H](C(=O)NS(C)(=O)=O)N(c1nc3ccc(F)cc3o1)C2 [Example 26, (S)-5-(Benzyloxy)-2-(6-fluorobenzo[d]oxazol-2-yl)-6-methoxy-N-(methylsulfonyl)-1,2,3,4-tetrahydroisoquinoline-3-carboxamide] | 37 nM | – | – | – | – | – | – | –
14 | COc1ccc(COc2c(OC)ccc3c2C[C@@H](C(=O)O)N(c2nc4ccc(C#N)cc4o2)C3)cn1 [Example 43, (S)-2-(6-cyanobenzo[d]oxazol-2-yl)-6-methoxy-5-((6-methoxypyridin-3-yl)methoxy)-1,2,3,4-tetrahydroisoquinoline-3-carboxylic acid] | 33 nM | – | – | – | – | – | – | –
15 | COc1ccc2c(c1OCc1ccc(C(F)(F)F)cc1)C[C@@H](C(=O)O)N(c1nc3ccc(F)cc3o1)C2 [Example 38, (S)-2-(6-fluorobenzo[d]oxazol-2-yl)-6-methoxy-5-((4-(trifluoromethyl)benzyl)oxy)-1,2,3,4-tetrahydroisoquinoline-3-carboxylic acid] | 11 nM | – | – | – | – | – | – | –
16 | COc1ccc(COc2c(OC)ccc3c2C[C@@H](C(=O)O)N(c2nc4ccc(C#N)cc4o2)C3)cc1 [Example 42, (S)-2-(6-cyanobenzo[d]oxazol-2-yl)-6-methoxy-5-((4-methoxybenzyl)oxy)-1,2,3,4-tetrahydroisoquinoline-3-carboxylic acid] | 6 nM | 451 min | – | – | – | – | – | –
17 | COc1ccc2c(c1OCc1ccccc1)C[C@@H](C(=O)O)N(c1nc3ccncc3o1)C2 [Example 22, (S)-5-(benzyloxy)-6-methoxy-2-(oxazolo[5,4-c]pyridin-2-yl)-1,2,3,4-tetrahydroisoquinoline-3-carboxylic acid] | – | – | 3.9 ± 0.8 h | 35700 ± 6090 ng·h/mL | 3.7 ± 0.8 h | 8020 ± 635 ng·h/mL | 1.2 ± 0.3 h | bioavailability [2]: 44.6%; Cmax ([2]; Oral (10 mg/kg)): 15900 ± 11000 ng/mL; half-life [2, 3]: 2 ± 0.6 h; remaining original drug after incubation in rat liver microsomes ([1]; rat liver microsomes, 60 minutes): ~100%
18 | COc1ccc2c(c1COc1ccccc1)C[C@@H](C(=O)NS(=O)(=O)N(C)C)N(c1nc3ccc(F)cc3o1)C2 [Example 20, (S)—N—(N,N-dimethylaminosulfonyl)-2-(6-fluorobenzo[d]oxazol-2-yl)-6-methoxy-5-(phenoxymethyl)-1,2,3,4-tetrahydroisoquinoline-3-carboxamide] | 26 nM | – | – | – | – | – | – | –
